Measurements taken from the NIST ThermoML archive (doi:10.1016/j.fluid.2018.04.024).

Details: Liquid, Vibrating tube method

CCCCCCCC(=O)OC [methyl octanoate]
mass density [kg/m3]
Details	293.15 K	303.15 K	313.15 K	323.15 K	333.15 K	343.15 K	353.15 K	363.15 K
100 kPa	876.9	867.63	859.3	850.11	841.41	832.2	823.55	814.86
1000 kPa	877.02	868.42	859.59	850.91	842.13	833.32	824.37	815.91
3000 kPa	878.65	869.93	861.28	852.59	844.08	835.25	826.59	818.18
5000 kPa	879.78	871.47	862.89	854.3	845.82	837.24	828.51	820.31
10000 kPa	883.45	875.12	866.8	858.46	850.11	841.71	833.34	825.1
15000 kPa	886.82	878.71	870.52	862.36	854.18	846.06	838.05	830.33
20000 kPa	890.07	882.04	874.1	866.24	858.22	850.39	842.32	834.62
25000 kPa	893.28	885.35	877.59	869.67	862.06	854.17	846.49	838.84
30000 kPa	896.35	888.57	880.87	873.15	865.57	858.07	850.48	843.09
35000 kPa	899.25	891.59	884.11	876.46	869.05	861.81	854.32	847.13
40000 kPa	902.05	894.49	887.04	879.75	872.61	865.19	857.88	851.06
50000 kPa	907.81	900.27	893.07	885.93	878.98	872.01	864.82	858.24
60000 kPa	912.62	905.64	898.5	891.84	884.95	877.98	871.35	865.07

CCCCC(=O)OC [methyl pentanoate]
mass density [kg/m3]
Details	293.15 K	303.15 K	313.15 K	323.15 K	333.15 K	343.15 K	353.15 K	363.15 K
100 kPa	890.18	879.57	869.49	858.83	848.52	837.8	827.35	816.63
1000 kPa	890.39	880.52	869.89	859.81	849.45	839.04	828.43	817.89
3000 kPa	892.23	882.29	871.87	861.81	851.71	841.41	831.13	820.7
5000 kPa	893.59	884.05	873.76	863.85	853.79	843.76	833.48	823.32
10000 kPa	897.77	888.3	878.33	868.67	858.86	849.05	839.27	829.23
15000 kPa	901.59	892.37	882.44	873.18	863.66	854.23	844.84	835.46
20000 kPa	905.28	896.14	886.62	877.67	868.26	859.25	849.86	840.59
25000 kPa	908.91	899.89	890.61	881.64	872.72	863.69	854.79	845.61
30000 kPa	912.4	903.55	894.38	885.65	876.79	868.17	859.45	850.57
35000 kPa	915.63	906.97	898.09	889.44	880.79	872.41	863.9	855.31
40000 kPa	918.78	910.27	901.45	893.13	884.78	876.28	868	859.8
50000 kPa	925.12	916.73	908.24	900.12	892.02	884.03	875.94	868.09
60000 kPa	930.63	922.74	914.32	906.77	898.8	890.84	883.37	875.9
